Measurements published in patent US4309407A, “Alkenyl-substituted thienylalkanecarboxylic acids and derivatives thereof” (A. Nattermann & Cie. GmbH, priority 1979, dated 1982).

How the values were obtained:
Rat Paw Edema = Rat Paw Edema Test; format: in vivo
Description: 1. Rat Paw Edema Test [methodology as per Hillebrecht, Arzneim.-Forsch (4), 607 (1954)].

granuloma = assay: Granuloma Test (Cotton Pellet Test); format: in vivo, rat
Description: 2. Granuloma Test (Cotton Pellet Test) [methodology as per R. Meier et al., Experientia 6, 469 (1950)]

Adjuvans Arthritis = Adjuvans Arthritis Test, Rat, p.o.; format: in vivo; details: 0.1 mg/kg p.o.
Description: 3. Adjuvans Arthritis Test, Rat, p.o. [methodology as per C. N. Pearson, Proc. Soc. Exp. Biol. 91, 95-101 (1956)].

rats = assay: Ulcer-Inducing Effect on rats; format: in vivo; details: rat
Description: 4. Ulcer-Inducing Effect on rats [methodology according to W. J. R. Whittle, Brit. J. Pharmacol. 55, 242-3 (1975)].

| Structure (SMILES) | Inhibiting effect (%) (Rat Paw Edema; 0.1 mg/kg per os) | Inhibiting effect (%) (Rat Paw Edema; dose printed ".0" mg/kg per os) | Decrease in weight of granuloma (%) (granuloma; rat dose 0.1 mg/kg per os) | Decrease in weight of granuloma (%) (granuloma; rat dose 1.0 mg/kg per os) | Inhibiting effect (%) (Adjuvans Arthritis; 14th day p.i.) | Inhibiting effect (%) (Adjuvans Arthritis; 17th day p.i.) | Ulcer-inducing effect (rats; in vivo, 1 mg/kg) | Ulcer-inducing effect (rats; in vivo, 10 mg/kg) | Ulcer-inducing effect (rats; in vivo, 100 mg/kg) | Inhibiting effect (%) (Rat Paw Edema; 3.2 mg/kg per os) | Inhibiting effect (%) (Rat Paw Edema; 5.6 mg/kg per os) | Decrease in weight of granuloma (%) (granuloma; rat dose 3.2 mg/kg per os) | Ulcer-inducing effect (rats; 3.2 mg/kg per os) | Ulcer-inducing effect (rats; 5.6 mg/kg per os) | Ulcer-inducing effect (rats; 7.5 mg/kg per os) |
| --- | --- | --- | --- | --- | --- | --- | --- | --- | --- | --- | --- | --- | --- | --- | --- |
| CCCCCC(=O)C=Cc1ccc(CCCCCCCCC(=O)OC)s1 [Example 5, 9-[5-(3-oxooct-1-enyl)thien-2-yl]nonanoic acid methyl ester] | -26% | -38% | -24% | -13% | -28% | -35% | 0 | 0 | 0 | – | – | – | – | – | – |
| COc1ccc2c(c1)c(CC(=O)O)c(C)n2C(=O)c1ccc(Cl)cc1 [Indomethacin, indomethacin] | – | – | -21% | – | -29% | -37% | – | – | – | -25% | -45% | -27% | ++ | +++ | +++ |
